Data on eight compounds can be found in PubChem BioAssay (NCI).

Test systems include COLO 205 colon; CCRF-CEM leukemia; SK-MEL-5 melanoma; ACHN renal; HCC-2998 colon; SNB-19 CNS; OVCAR-4 ovarian; RPMI-8226 leukemia; TK-10 renal; MDA-MB-435.
Holding throughout (assay): NCI-60 cell line screen, 48 h

Each structure is given as a SMILES string.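 96-well plates; 48 h exposure; 5 concentrations. Endpoints by linear interpolation between flanking doses. Not reached: highest tested concentration assigned. GI50 marks 50% less growth. Definition used: TGI = concentration required for complete inhibition of growth.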

Turning to `N#Cc1c(Oc2ccc(F)c(NC(=O)Cc3cccc(C(F)(F)F)c3)c2)ccc2nc(NC(=O)C3CC3)sc12`, the GI50 in the test with COLO 205 colon was 0.0299 µM; in the test on CCRF-CEM leukemia, 0.622 µM; in the test with SK-MEL-5 melanoma, 0.206 µM; with ACHN renal it was 0.801 µM; in the test with HCC-2998 colon, 0.581 µM; in the test on SNB-19 CNS, 0.828 µM. For the same compound, the GI50 in the test on OVCAR-4 ovarian is 2.6 µM; with RPMI-8226 leukemia, 0.72 µM; in the test with TK-10 renal, 1.86 µM; in the test with MDA-MB-435 it was 0.137 µM. The TGI is 2.63 µM in the test on COLO 205 colon; above 100 µM in the test with CCRF-CEM leukemia; 8.6 µM with SK-MEL-5 melanoma; above 100 µM in the test on ACHN renal; above 100 µM in the test with HCC-2998 colon; above 100 µM with SNB-19 CNS. For the same compound, the TGI in the test on OVCAR-4 ovarian, with RPMI-8226 leukemia, with TK-10 renal and with MDA-MB-435 was above 100 µM each time.

With `Cc1cc2c(C(C)C)c(O)c(O)c(C=O)c2c(O)c1-c1c(C)cc2c(C(C)C)c(O)c(O)c(C=O)c2c1O` (tested in a mixture with another compound), the GI50 was 1.36 µM with COLO 205 colon; 0.546 µM with CCRF-CEM leukemia; 1.54 µM with SK-MEL-5 melanoma; 0.545 µM in the test with ACHN renal; 0.484 µM with HCC-2998 colon; 0.686 µM in the test with SNB-19 CNS. The GI50 is 1.45 µM in the test with OVCAR-4 ovarian, 0.529 µM in the test on RPMI-8226 leukemia, 0.546 µM with TK-10 renal and 1.86 µM in the test with MDA-MB-435. For the same compound, the TGI was 2.87 µM in the test on COLO 205 colon; 13.7 µM in the test with CCRF-CEM leukemia; 2.95 µM in the test on SK-MEL-5 melanoma; 2.21 µM in the test on ACHN renal; 1.76 µM in the test on HCC-2998 colon; 9.47 µM in the test with SNB-19 CNS. In addition, the TGI was 9.99 µM with OVCAR-4 ovarian, 4.74 µM in the test on RPMI-8226 leukemia, 2.93 µM with TK-10 renal and 5.19 µM in the test on MDA-MB-435.

In the case of `COc1cnc2c(c1)C(=O)c1c-2n(CCCN2CCN(CCO)CC2)c(=O)c2cc([N+](=O)[O-])ccc12`, the GI50 with COLO 205 colon is 1.18 µM; in the test on CCRF-CEM leukemia it was 0.494 µM; in the test on SK-MEL-5 melanoma it was 1.44 µM; in the test on ACHN renal it was 0.738 µM; in the test with HCC-2998 colon, 11.7 µM; in the test on SNB-19 CNS, 2.38 µM. Also, the GI50 is 1.79 µM in the test on OVCAR-4 ovarian, 1.57 µM with RPMI-8226 leukemia, 2.77 µM with TK-10 renal and 1.97 µM in the test with MDA-MB-435. Besides, the TGI was 5.13 µM in the test on COLO 205 colon; above 100 µM in the test with CCRF-CEM leukemia; 2.78 µM with SK-MEL-5 melanoma; 15.9 µM in the test on ACHN renal; 24.9 µM in the test with HCC-2998 colon; 12.4 µM in the test on SNB-19 CNS. Moreover, the TGI worked out at 4.42 µM with OVCAR-4 ovarian, 6.75 µM in the test with RPMI-8226 leukemia, 11.9 µM in the test with TK-10 renal and 4.66 µM in the test with MDA-MB-435.

`C[C@@H]1CN2[C@H]3[C@@H]1CC[C@]31CCC(=O)O[C@]1(C)[C@@H]1CC[C@H]3CCC=C3[C@@H]12`: the GI50 with COLO 205 colon, in the test with CCRF-CEM leukemia, in the test with SK-MEL-5 melanoma, in the test with ACHN renal, with HCC-2998 colon and with SNB-19 CNS was above 70 µM in each case. For the same compound, the GI50 is above 70 µM in the test with OVCAR-4 ovarian, above 70 µM in the test on RPMI-8226 leukemia, above 70 µM with TK-10 renal and 48.2 µM in the test on MDA-MB-435. Moreover, the TGI in the test with COLO 205 colon, in the test with CCRF-CEM leukemia, in the test with SK-MEL-5 melanoma, in the test with ACHN renal, in the test on HCC-2998 colon and in the test on SNB-19 CNS was above 70 µM throughout. The TGI with OVCAR-4 ovarian, with RPMI-8226 leukemia, in the test on TK-10 renal and with MDA-MB-435 was above 70 µM throughout.

In the case of `Cc1cccnc1CNC1CC(NCc2ncccc2C)CC(NCc2ncccc2C)C1` (stereo not drawn), the GI50 was 2.03 µM in the test with COLO 205 colon; 2.18 µM in the test on CCRF-CEM leukemia; 1.92 µM in the test with SK-MEL-5 melanoma; 3.22 µM in the test on ACHN renal; 2.04 µM with SNB-19 CNS; 2.88 µM with OVCAR-4 ovarian. Also, the GI50 in the test with RPMI-8226 leukemia was 1.91 µM; with TK-10 renal, 3.49 µM; in the test on MDA-MB-435 it was 4.16 µM. Also, the TGI with COLO 205 colon was determined as 4.25 µM; in the test with CCRF-CEM leukemia, 4.71 µM; in the test with SK-MEL-5 melanoma, 3.83 µM; in the test on ACHN renal, 11.2 µM; with SNB-19 CNS, 4.03 µM; in the test with OVCAR-4 ovarian, 11.9 µM. For the same compound, the TGI amounted to 4.3 µM in the test with RPMI-8226 leukemia, 11.3 µM in the test with TK-10 renal and 10.7 µM in the test on MDA-MB-435.

For the compound `Cc1sc(/N=C2/NC(=O)CS2)nc1-c1nc(/N=C2/NC(=O)CS2)sc1C`, the GI50 with COLO 205 colon is above 50 µM; with SK-MEL-5 melanoma it was 31.2 µM; in the test with ACHN renal it was above 50 µM; in the test with SNB-19 CNS, above 50 µM; with RPMI-8226 leukemia, 9.59 µM; in the test on TK-10 renal, above 50 µM. Besides, in the test with MDA-MB-435, the GI50 is above 50 µM. For the same compound, the TGI in the test on COLO 205 colon is above 50 µM; in the test with SK-MEL-5 melanoma, above 50 µM; in the test with ACHN renal it was above 50 µM; in the test on SNB-19 CNS, above 50 µM; in the test on RPMI-8226 leukemia, 49.1 µM; in the test on TK-10 renal, above 50 µM. Also, in the test with MDA-MB-435, the TGI was above 50 µM.

As to `CCNCCNc1cc(-c2cccc(C(F)(F)F)c2)c(C#N)c2nc3ccccc3n12`, the GI50 in the test with COLO 205 colon was 0.557 µM; in the test on CCRF-CEM leukemia, 0.29 µM; in the test on SK-MEL-5 melanoma, 1.76 µM; in the test with ACHN renal, 1.32 µM; with HCC-2998 colon, 1.65 µM; in the test on SNB-19 CNS it was 1.99 µM. Further, the figures for the GI50 with OVCAR-4 ovarian, in the test with TK-10 renal and in the test with MDA-MB-435 were 1.6 µM, 2.14 µM and 1.52 µM, respectively. For the same compound, the TGI was determined as 1.99 µM with COLO 205 colon; 0.798 µM in the test with CCRF-CEM leukemia; 3.16 µM in the test on SK-MEL-5 melanoma; 2.9 µM in the test with ACHN renal; 3.13 µM with HCC-2998 colon; 3.97 µM in the test with SNB-19 CNS. In addition, the TGI with OVCAR-4 ovarian is 3.24 µM; with TK-10 renal, 3.69 µM; in the test on MDA-MB-435 it was 2.88 µM.

With `CS[C@@]1(C(=O)Nc2ccc3[nH]nc(-c4ccc(OC(C)C)nc4)c3c2)CCN(CC(=O)N2CC=C(c3ccc(-c4ncn(C)n4)cc3)CC2)C1`, the GI50 with COLO 205 colon was 0.0178 µM; in the test with CCRF-CEM leukemia, 12.5 µM; in the test on SK-MEL-5 melanoma, 1.03 µM; with ACHN renal it was 37.8 µM; with HCC-2998 colon it was 0.131 µM; in the test on SNB-19 CNS it was above 100 µM. The GI50 with RPMI-8226 leukemia is 2.21 µM; in the test with TK-10 renal it was 0.237 µM; in the test with MDA-MB-435, 0.355 µM. The TGI with COLO 205 colon was above 100 µM; with CCRF-CEM leukemia it was above 100 µM; with SK-MEL-5 melanoma, above 89.9 µM; with ACHN renal, above 100 µM; with HCC-2998 colon, above 100 µM; in the test with SNB-19 CNS, above 100 µM. The TGI in the test on RPMI-8226 leukemia, with TK-10 renal and in the test with MDA-MB-435 was above 100 µM each time.
